Data: PMC8159961, “Exploring protein hotspots by optimized fragment pharmacophores” (Nature Communications, 2021)

What was measured:
[1] = target: T1, human 5-HT1A receptor (Homo sapiens, UniProt P08908); assay: GPCR radioligand binding assay, [3H]-8-OH-DPAT displacement, HEK293 membranes; details: for 5-HT1A % Inhibition by plate position: 10 µM; for %inh 5-HT1A average: average of exp_1 and exp_2; for %inh 5-HT1A exp_1: replicate exp_1; for %inh 5-HT1A exp_2: replicate exp_2; for %inh 5-HT1A corrected*: average, values below 0 and above 100% were set as 0 and 100
T1 construct: expressed in transfected cells
T1 sequence (P08908 1-422): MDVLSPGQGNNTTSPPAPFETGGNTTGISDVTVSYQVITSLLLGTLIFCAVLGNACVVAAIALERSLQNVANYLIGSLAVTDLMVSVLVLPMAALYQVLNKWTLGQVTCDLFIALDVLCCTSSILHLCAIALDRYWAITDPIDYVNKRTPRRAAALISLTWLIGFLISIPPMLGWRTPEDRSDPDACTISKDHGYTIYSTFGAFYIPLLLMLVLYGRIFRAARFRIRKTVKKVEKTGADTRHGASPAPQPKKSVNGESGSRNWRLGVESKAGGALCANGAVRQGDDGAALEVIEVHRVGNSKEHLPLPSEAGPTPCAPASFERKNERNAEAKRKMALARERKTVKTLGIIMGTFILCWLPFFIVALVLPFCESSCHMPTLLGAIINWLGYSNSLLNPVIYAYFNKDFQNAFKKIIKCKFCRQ

[2] = target: T2, human 5-HT6 receptor (Homo sapiens, UniProt P50406); assay: GPCR radioligand binding assay, [3H]-LSD displacement, HEK293 membranes; details: for 5-HT6 % Inhibition by plate position: 10 µM; for %inh 5-HT6 average: average of exp_1 and exp_2; for %inh 5-HT6 corrected*: average, values below 0 and above 100% were set as 0 and 100; for %inh 5-HT6 exp_1: replicate exp_1; for %inh 5-HT6 exp_2: replicate exp_2
T2 construct: expressed in transfected cells
T2 sequence (P50406 whole entry): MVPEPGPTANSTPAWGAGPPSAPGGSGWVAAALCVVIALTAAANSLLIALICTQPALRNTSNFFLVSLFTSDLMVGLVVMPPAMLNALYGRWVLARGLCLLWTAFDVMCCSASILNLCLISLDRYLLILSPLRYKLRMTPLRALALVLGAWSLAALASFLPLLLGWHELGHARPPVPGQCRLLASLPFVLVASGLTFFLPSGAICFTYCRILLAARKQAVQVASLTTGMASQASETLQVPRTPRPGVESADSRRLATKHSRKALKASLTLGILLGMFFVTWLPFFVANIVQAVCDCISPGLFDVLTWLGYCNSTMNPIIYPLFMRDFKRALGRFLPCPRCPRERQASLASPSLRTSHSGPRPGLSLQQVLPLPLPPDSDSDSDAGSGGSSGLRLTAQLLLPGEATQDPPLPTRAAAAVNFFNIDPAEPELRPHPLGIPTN

[3] = target: T3, human 5-HT7b receptor (Homo sapiens, UniProt P34969); assay: GPCR radioligand binding assay, [3H]-5-CT displacement, HEK293 membranes; details: for 5-HT7 % Inhibition by plate position: 10 µM; for %inh 5-HT7 exp_1: replicate exp_1; for %inh 5-HT7 exp_2: replicate exp_2; for %inh 5-HT7 average: average of exp_1 and exp_2
T3 construct: expressed in transfected cells
T3 sequence (P34969 1-432): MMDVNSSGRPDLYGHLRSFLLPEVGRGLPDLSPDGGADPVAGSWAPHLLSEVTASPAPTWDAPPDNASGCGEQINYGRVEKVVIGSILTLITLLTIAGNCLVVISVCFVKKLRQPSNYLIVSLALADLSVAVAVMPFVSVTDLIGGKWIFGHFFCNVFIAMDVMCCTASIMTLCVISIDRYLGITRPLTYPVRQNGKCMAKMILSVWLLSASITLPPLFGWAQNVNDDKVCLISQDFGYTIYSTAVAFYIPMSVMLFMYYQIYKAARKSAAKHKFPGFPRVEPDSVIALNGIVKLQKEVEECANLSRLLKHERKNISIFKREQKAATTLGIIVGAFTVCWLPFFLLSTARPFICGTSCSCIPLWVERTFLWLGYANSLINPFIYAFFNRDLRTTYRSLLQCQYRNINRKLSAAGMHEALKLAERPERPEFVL

## O=c1[nH]c2c(s1)CCC2 [C10]
[1]
  5-HT1A % Inhibition by plate position: 0%
  %inh 5-HT1A average: -4%
  %inh 5-HT1A exp_1: 2.56%
  %inh 5-HT1A exp_2: -11%
[2]
  5-HT6 % Inhibition by plate position: 42%
  %inh 5-HT6 average: 42%
  %inh 5-HT6 corrected*: 42%
  %inh 5-HT6 exp_1: 44%
  %inh 5-HT6 exp_2: 39%
[3]
  5-HT7 % Inhibition by plate position: 0.592%
  %inh 5-HT7 exp_1: -6.56%
  %inh 5-HT7 exp_2: 8%

## C1=C[C@H]2O[C@@H]1c1ccccc12 [C11]
[1]
  5-HT1A % Inhibition by plate position: 0%
  %inh 5-HT1A average: -11%
  %inh 5-HT1A exp_1: -11%
  %inh 5-HT1A exp_2: -11%
[2]
  5-HT6 % Inhibition by plate position: 46%
  %inh 5-HT6 average: 46%
  %inh 5-HT6 corrected*: 46%
  %inh 5-HT6 exp_1: 42%
  %inh 5-HT6 exp_2: 50%
[3]
  5-HT7 % Inhibition by plate position: 0%
  %inh 5-HT7 average: -8%
  %inh 5-HT7 exp_1: -5.66%
  %inh 5-HT7 exp_2: -11%

## N#Cc1ccc2ncsc2c1 [C12]
[1]
  %inh 5-HT1A average: 5.41%
  %inh 5-HT1A corrected*: 5.41%
  %inh 5-HT1A exp_1: 11%
  %inh 5-HT1A exp_2: -0.546%
[2]
  5-HT6 % Inhibition by plate position: 35%
  %inh 5-HT6 average: 35%
  %inh 5-HT6 corrected*: 35%
  %inh 5-HT6 exp_1: 39%
  %inh 5-HT6 exp_2: 32%
[3]
  5-HT7 % Inhibition by plate position: 0%
  %inh 5-HT7 average: -7%
  %inh 5-HT7 exp_1: -6%
  %inh 5-HT7 exp_2: -8.5%

## Nc1ccc(SC(F)F)cc1 [D1]
[1]
  5-HT1A % Inhibition by plate position: 0%
  %inh 5-HT1A average: -16%
  %inh 5-HT1A exp_1: -6.6%
  %inh 5-HT1A exp_2: -25%
[2]
  5-HT6 % Inhibition by plate position: 45%
  %inh 5-HT6 average: 45%
  %inh 5-HT6 corrected*: 45%
  %inh 5-HT6 exp_1: 52%
  %inh 5-HT6 exp_2: 38%
[3]
  5-HT7 % Inhibition by plate position: 8%
  %inh 5-HT7 exp_1: 5.58%
  %inh 5-HT7 exp_2: 10%

## CCc1ccc(NC2=NCCCS2)cc1 [D2]
[1]
  %inh 5-HT1A average: 29%
  %inh 5-HT1A corrected*: 29%
  %inh 5-HT1A exp_1: 30%
  %inh 5-HT1A exp_2: 27%
[2]
  5-HT6 % Inhibition by plate position: 16%
  %inh 5-HT6 average: 16%
  %inh 5-HT6 corrected*: 16%
  %inh 5-HT6 exp_1: 19%
  %inh 5-HT6 exp_2: 13%
[3]
  5-HT7 % Inhibition by plate position: 6%
  %inh 5-HT7 exp_1: 12%
  %inh 5-HT7 exp_2: 0.291%

## CCn1cnc2ccccc21 [D4]
[1]
  5-HT1A % Inhibition by plate position: 0%
  %inh 5-HT1A average: -8%
  %inh 5-HT1A exp_1: -16%
  %inh 5-HT1A exp_2: 0%
[2]
  5-HT6 % Inhibition by plate position: 23%
  %inh 5-HT6 average: 23%
  %inh 5-HT6 corrected*: 23%
  %inh 5-HT6 exp_1: 23%
  %inh 5-HT6 exp_2: 23%
[3]
  5-HT7 % Inhibition by plate position: 0%
  %inh 5-HT7 average: -5.34%
  %inh 5-HT7 exp_1: 1.55%
  %inh 5-HT7 exp_2: -12%

## CCCN1C(=O)CC(=O)NC1=S [D5]
[1]
  5-HT1A % Inhibition by plate position: 0%
  %inh 5-HT1A average: -8.49%
  %inh 5-HT1A exp_1: -9%
  %inh 5-HT1A exp_2: -8%
[2]
  5-HT6 % Inhibition by plate position: 49%
  %inh 5-HT6 average: 49%
  %inh 5-HT6 corrected*: 49%
  %inh 5-HT6 exp_1: 57%
  %inh 5-HT6 exp_2: 41%
[3]
  5-HT7 % Inhibition by plate position: 10%
  %inh 5-HT7 exp_1: 13%
  %inh 5-HT7 exp_2: 6%

## Cc1ccc(C)n1Cc1ccccc1Cl [D6]
[1]
  %inh 5-HT1A average: 6.37%
  %inh 5-HT1A corrected*: 6.37%
  %inh 5-HT1A exp_1: 4.33%
  %inh 5-HT1A exp_2: 8%
[2]
  5-HT6 % Inhibition by plate position: 26%
  %inh 5-HT6 average: 26%
  %inh 5-HT6 corrected*: 26%
  %inh 5-HT6 exp_1: 30%
  %inh 5-HT6 exp_2: 23%
[3]
  5-HT7 % Inhibition by plate position: 0%
  %inh 5-HT7 average: -5.55%
  %inh 5-HT7 exp_1: -2.55%
  %inh 5-HT7 exp_2: -8.54%

## Cc1ccc(-c2ccc(O)cc2)cc1 [D7]
[1]
  5-HT1A % Inhibition by plate position: 0%
  %inh 5-HT1A average: -20%
  %inh 5-HT1A exp_1: -25%
  %inh 5-HT1A exp_2: -14%
[2]
  5-HT6 % Inhibition by plate position: 45%
  %inh 5-HT6 average: 45%
  %inh 5-HT6 corrected*: 45%
  %inh 5-HT6 exp_1: 52%
  %inh 5-HT6 exp_2: 38%
[3]
  5-HT7 % Inhibition by plate position: 0%
  %inh 5-HT7 average: -7.45%
  %inh 5-HT7 exp_1: 2.16%
  %inh 5-HT7 exp_2: -17%

## c1ccc2oc(C3CCCNC3)nc2c1 (stereo not shown) [D10]
[1]
  %inh 5-HT1A average: 78%
  %inh 5-HT1A corrected*: 78%
  %inh 5-HT1A exp_1: 77%
  %inh 5-HT1A exp_2: 80%
[2]
  5-HT6 % Inhibition by plate position: 25%
  %inh 5-HT6 average: 25%
  %inh 5-HT6 corrected*: 25%
  %inh 5-HT6 exp_1: 22%
  %inh 5-HT6 exp_2: 28%
[3]
  5-HT7 % Inhibition by plate position: 0%
  %inh 5-HT7 average: -0.305%
  %inh 5-HT7 exp_1: -4%
  %inh 5-HT7 exp_2: 3.22%

## COc1ccc(CN2CCNCC2)cc1F [D11]
[1]
  5-HT1A % Inhibition by plate position: 0%
  %inh 5-HT1A average: -7%
  %inh 5-HT1A exp_1: 10%
  %inh 5-HT1A exp_2: -23%
[2]
  5-HT6 % Inhibition by plate position: 41%
  %inh 5-HT6 average: 41%
  %inh 5-HT6 corrected*: 41%
  %inh 5-HT6 exp_1: 45%
  %inh 5-HT6 exp_2: 38%
[3]
  5-HT7 % Inhibition by plate position: 0%
  %inh 5-HT7 average: -0.31%
  %inh 5-HT7 exp_1: -5%
  %inh 5-HT7 exp_2: 4.58%
